Results taken from patent US9249159B2, “Composition for treating hepatitis C virus, regulating phosphorylation of replicase” (Industry-Academic Cooperation Foundation, Yonsei University, priority 2011, dated 2016).

What was measured:
R-1 cell = experiment: Cytotoxicity / cell viability in R-1 cell; type: cell-based, human; conditions: R-1 cell versus parental Huh7, 72 hours
Description: Cytotoxicity of 17-DMAG was measured by using a reagent MTS [3-(4,5-dimethylthiazol-2-yl)-5-(3-carboxylmethoxyphenyl)-2-(4-sulfophenyl)-2H-tetrazolium] (Promega, Madison, Wis., USA) according to the protocols of the manufacturer. The experiment was carried out as follows.
Huh7 or R-1 cells (2×10^4 cell/well) were seeded in a 96-well plate and treated with 17-DMAG at different concentrations for 72 hours. Then, the culture medium was removed and a MTS substrate dissolved in the culture medium containing 5% FBS was added to each well of the plate. The cells were cultured at 37° C. for 1 hour, and absorbance at 490 nm was read in a 96-well micro plate automatic reading system using GloMax-Multi detection system (Promega).
An experiment was carried out to check whether or not 17-DMAG inhibited virus RNA replication in an R-1 cell in which autonomous replication of a genotype 1b HCV subgenomic replicon RNA was maintained. Before antiviral activity of 17-DMAG was evaluated, an MTS assay was carried out to evaluate whether or not the drug interfered with cell viability. To be specific, the R-1 cell loaded with a selective HCV subgenomic replicon (upper diagram) and its parental cell line Huh7 were treated with 17-DMAG at a certain concentration for 72 hours, and cell viability was evaluated by the MTS assay.

HCV NS5B = experiment: NS5B phosphorylation in Huh7TR-NS cell (anti-p-Ser immunoprecipitation, anti-NS5B immunoblot); type: cell-based, hepatitis C virus; conditions: 17-DMAG 50 nM or HA1077 20 μM, 48 hours
Description: The human hepatoma stable cell lines Huh7TR-4 and Huh7TR-NS [17], which express the tetracycline repressor and the HCV NS proteins (NS3-NS5) in a tetracycline-inducible manner, respectively, were maintained in the presence of blasticidin S (10 μg/mlL and Zeocine (100 μg/mL). NS protein expression in Huh7TR-NS was induced by addition of 1 μg/mL tetracycline for 24 h. The Huh7 cell-derived cell line R-1, supporting stable, autonomous replication of genotype 1b HCV subgenomic replicon RNA, was described previously. 17-DMAG, the PRK2 inhibitor, HA1077, and the inhibitor of phosphatidylinositol 3-kinase (PI3K), LY294002, were obtained from Sigma-Aldrich (St. Louis, Mo., USA) and Calbiochem Inc. (La Jolla, Calif., USA), and Biomol (Plymouth Meeting, Pa., USA), respectively. IFN-α was purchased from Sigma-Aldrich (1-4276).
For co-immunoprecipitation experiment, the cells were resuspended in lysis buffer A (100 mM Tris-HCl, pH 8.0, 150 mM NaCl, 1% Triton X-100, 10 mM NaF, 1 mM Na3VO4, 17.5 mM β-glycerophosphate) supplemented with an EDTA-free protease inhibitor cocktail (Roche Applied Science, Indianapolis, Ind., USA) and incubated on ice for 30 min. […]
Then, treatment with 17-DMAG (50 nM) or HA1077 (20 μM), a PRK2 inhibitor, was carried out for 48 hours. […] A case without treatment with an inhibitor was expressed as (−).

Rho-kinase I (ROCKI) = experiment: ROCKI level in Huh7 cell by immunoblotting; type: cell-based; conditions: 48 hours
pan-PKC (α, β, and γ) = experiment: pan-PKC level in Huh7 cell by immunoblotting; type: cell-based; conditions: 48 hours
Text: Total cell lysates from cells treated with inhibitors or IFN-α by using antibodies to PDK1, p-PDK1 (S241), PRK2, and p-PRK2 (T816) (products of Cell Signaling Technology, Inc., Beverly, Mass., USA) was used for immunoblotting. In order to detect PKC isoforms α, β, and γ, a polyclonal antibody to a consensus sequence present in three PKC (protein kinase C) isoforms α, β and γ (anti-pan-PKC; Zymed Laboratories, San Francisco, Calif., USA) was used. An anti-α-tubulin antibody (Oncogene Research Products, Cambridge, Mass., USA) was carried out in immunoblotting for checking whether or not the same amount of protein was loaded.
In order to test whether or not PDK1 in Huh7 as an HCC cell line was destabilized by inhibition of Hsp90, 17-DMAG as a second-generation geldanamycin derivative known as being safer than geldanamycin or its derivative 17-AAG and effective for oral delivery was used (FIG. 8A). The Huh7 cell was treated for 48 hours along with an increase in concentration of 17-DMAG, and a steady state level of PDK1 was evaluated by immunoblotting.

CO[C@H]1/C=C\C=C(/C)C(=O)NC2=CC(=O)C(NCCN(C)C)=C(C[C@@H](C)C[C@H](OC)[C@H](O)[C@@H](C)/C=C(\C)[C@@H]1OC(N)=O)C2=O [17-DMAG, 17-(dimethylaminoethylamino)-17-demethoxygeldanamycin]
sensitivity of cell viability (MTS assay) (R-1 cell): more sensitive to 17-DMAG than the parental cell line Huh7 | NS5B phosphorylation (HCV NS5B): inhibited NS5B phosphorylation | steady state content of Rho-kinase I (ROCKI) (Rho-kinase I (ROCKI)): not significantly affected | steady state content of pan-PKC (α, β, and γ) (pan-PKC (α, β, and γ)): not significantly affected
